Laboratory results as given in patent publication US3957987A, “Compositions containing a carbonamidoquinoxaline-di-N-oxide and method of using same” (Bayer Aktiengesellschaft, priority 1971, dated 1976).
Values after ≈ are worked out from the molar mass of the structure shown.

Key:
Format in all cases: cell-based
[1] = system: Clostridium tetani; assay: microbe, parasite or virus in culture; conditions: read-out: minimum inhibitory concentration
[2] = system: Clostridium botulinum; assay: microbe, parasite or virus in culture; conditions: read-out: minimum inhibitory concentration
[3] = system: Mycoplasma MS; assay: Minimum inhibitory concentration, Mycoplasma MS
Description: (§1) As representative of the spectrum of antimicrobial activity for these compounds, the following representative minimum inhibitory concentrations shown on Tables A, B and C can be noted: […]

[4] = system: Mycoplasma S6; assay: Minimum inhibitory concentration, Mycoplasma S6
[5] = system: Mycoplasma gran; assay: Minimum inhibitory concentration, Mycoplasma gran
[6] = system: Pasteurella multocida ATCC; assay: Minimum inhibitory concentration, Pasteurella multocida ATCC
[7] = system: Alcaligenes faecalis ATCC; assay: Minimum inhibitory concentration, Alcaligenes faecalis ATCC
[8] = system: Bordetella bronchiseptica; assay: Minimum inhibitory concentration, Bordetella bronchiseptica
[9] = system: Aeromonas liquefaciens; assay: Minimum inhibitory concentration, Aeromonas liquefaciens; conditions: Aeromonas hydrophila
[10] = system: Mycobacterium species; assay: Minimum inhibitory concentration, Mycobacterium species
Description: as §1

[11] = system: Klebsiella 63; assay: Minimum inhibitory concentration in vitro, Klebsiella 63
Description: (§2) As representative of the spectrum of antimicrobial activity for these compounds, the following representative minimum inhibitory concentrations shown on Tables A, B and C can be noted:
(§3) Minimum Inhibitory Concentrations In Vitro, in μg/ml of Medium

[12] = system: Klebsiella 8085; assay: Minimum inhibitory concentration in vitro, Klebsiella 8085
Description: as §2, §3

[13] = system: Staphylococcus aureus 133; assay: Minimum inhibitory concentration in vitro, Staphylococcus aureus 133
Description: as §2, §3

[14] = system: Streptococcus pyogenes; assay: Minimum inhibitory concentration in vitro, Streptococcus pyogenes
Description: as §2, §3

[15] = system: Escherichia coli C 165; assay: Minimum inhibitory concentration in vitro, Escherichia coli C 165; conditions: C165
Description: as §2, §3

COC(=O)NN=Cc1c(C(=O)N2CCOCC2)[n+]([O-])c2ccccc2[n+]1[O-] [Example 21] gave an MIC [1] of 100 µg/mL (≈ 266 µM), an MIC [2] of 1 µg/mL (≈ 2.66 µM) and an MIC [3] of 10 µg/mL (≈ 26.6 µM). It also gave an MIC [4] of 1 µg/mL (≈ 2.66 µM), an MIC [5] of 0.1 µg/mL (≈ 0.266 µM) and an MIC [6] of 10 µg/mL (≈ 26.6 µM). For the same molecule, the MIC [7] was 100 µg/mL (≈ 266 µM), the MIC [8] was 100 µg/mL (≈ 266 µM) and the MIC [9] was 1 µg/mL (≈ 2.66 µM). The MIC [10] was 100 µg/mL (≈ 266 µM).

With CCNC(=O)c1c(C=NO)[n+]([O-])c2ccccc2[n+]1[O-] [Example 22] the MIC [1] was 100 µg/mL (≈ 362 µM), the MIC [2] was 1 µg/mL (≈ 3.62 µM) and the MIC [3] was 100 µg/mL (≈ 362 µM). It also gave an MIC [4] of 10 µg/mL (≈ 36.2 µM), an MIC [5] of 10 µg/mL (≈ 36.2 µM) and an MIC [6] of 10 µg/mL (≈ 36.2 µM). For the same molecule, the MIC [7] was 100 µg/mL (≈ 362 µM), the MIC [8] was 100 µg/mL (≈ 362 µM) and the MIC [9] was 0.1 µg/mL (≈ 0.362 µM). The MIC [10] was 100 µg/mL (≈ 362 µM).

CCCNC(=O)c1c(C=NO)[n+]([O-])c2ccccc2[n+]1[O-] [Example 23] gave an MIC [1] of 100 µg/mL (≈ 344 µM), an MIC [2] of 1 µg/mL (≈ 3.44 µM) and an MIC [3] of 100 µg/mL (≈ 344 µM). For the same molecule, the MIC [4] was 100 µg/mL (≈ 344 µM), the MIC [5] was 1 µg/mL (≈ 3.44 µM) and the MIC [6] was 100 µg/mL (≈ 344 µM). It also gave an MIC [7] of 100 µg/mL (≈ 344 µM), an MIC [8] of 100 µg/mL (≈ 344 µM) and an MIC [9] of 100 µg/mL (≈ 344 µM). It also gave an MIC [10] of 100 µg/mL (≈ 344 µM).

CC(C)NC(=O)c1c(C=NO)[n+]([O-])c2ccccc2[n+]1[O-] [Example 24] was tested, and the MIC [1] was 100 µg/mL (≈ 344 µM), the MIC [2] was 1 µg/mL (≈ 3.44 µM) and the MIC [3] was 100 µg/mL (≈ 344 µM). For the same molecule, the MIC [4] was 100 µg/mL (≈ 344 µM), the MIC [5] was 1 µg/mL (≈ 3.44 µM) and the MIC [6] was 100 µg/mL (≈ 344 µM). It also gave an MIC [7] of 100 µg/mL (≈ 344 µM), an MIC [8] of 100 µg/mL (≈ 344 µM) and an MIC [9] of 100 µg/mL (≈ 344 µM). For the same molecule, the MIC [10] was 100 µg/mL (≈ 344 µM).

In the case of CNC(=O)c1c(C=NNC(=O)OCCO)[n+]([O-])c2ccccc2[n+]1[O-] [Example 25], the MIC [1] was 100 µg/mL (≈ 286 µM), the MIC [2] was 1 µg/mL (≈ 2.86 µM) and the MIC [3] was 100 µg/mL (≈ 286 µM). For the same molecule, the MIC [4] was 100 µg/mL (≈ 286 µM), the MIC [5] was 1 µg/mL (≈ 2.86 µM) and the MIC [6] was 100 µg/mL (≈ 286 µM). The MIC [7] was 100 µg/mL (≈ 286 µM), the MIC [8] was 100 µg/mL (≈ 286 µM) and the MIC [9] was 100 µg/mL (≈ 286 µM).

With CCOC(=O)NN=Cc1c(C(=O)NC)[n+]([O-])c2ccccc2[n+]1[O-] [Example 26] the MIC [11] was 100 µg/mL (≈ 300 µM), the MIC [12] was 10 µg/mL (≈ 30 µM) and the MIC [13] was 100 µg/mL (≈ 300 µM). It also gave an MIC [14] of 100 µg/mL (≈ 300 µM), an MIC [15] of 100 µg/mL (≈ 300 µM) and an MIC [1] of 100 µg/mL (≈ 300 µM). For the same molecule, the MIC [2] was 1 µg/mL (≈ 3 µM), the MIC [3] was 100 µg/mL (≈ 300 µM) and the MIC [4] was 100 µg/mL (≈ 300 µM). It also gave an MIC [5] of 0.1 µg/mL (≈ 0.3 µM), an MIC [6] of 100 µg/mL (≈ 300 µM) and an MIC [7] of 100 µg/mL (≈ 300 µM). For the same molecule, the MIC [8] was 100 µg/mL (≈ 300 µM) and the MIC [9] was 100 µg/mL (≈ 300 µM).

CCOC(=O)NN=Cc1c(C(=O)NCCO)[n+]([O-])c2ccccc2[n+]1[O-] [Example 27] showed an MIC [12] of 100 µg/mL (≈ 275 µM), an MIC [14] of 100 µg/mL (≈ 275 µM) and an MIC [1] of 100 µg/mL (≈ 275 µM). It also gave an MIC [2] of 100 µg/mL (≈ 275 µM), an MIC [4] of 100 µg/mL (≈ 275 µM) and an MIC [5] of 100 µg/mL (≈ 275 µM). For the same molecule, the MIC [6] was 100 µg/mL (≈ 275 µM), the MIC [7] was 100 µg/mL (≈ 275 µM) and the MIC [8] was 100 µg/mL (≈ 275 µM). It also gave an MIC [9] of 100 µg/mL (≈ 275 µM).

For O=C(NN=Cc1c(C(=O)NCCO)[n+]([O-])c2ccccc2[n+]1[O-])OCCO [Example 28], the MIC [1] was 100 µg/mL (≈ 264 µM), the MIC [2] was 100 µg/mL (≈ 264 µM) and the MIC [4] was 100 µg/mL (≈ 264 µM). It also gave an MIC [5] of 100 µg/mL (≈ 264 µM), an MIC [6] of 100 µg/mL (≈ 264 µM) and an MIC [7] of 100 µg/mL (≈ 264 µM). It also gave an MIC [8] of 100 µg/mL (≈ 264 µM) and an MIC [9] of 100 µg/mL (≈ 264 µM).

O=C(NCCO)c1c(C=NNC(=O)N2CCOCC2)[n+]([O-])c2ccccc2[n+]1[O-] [Example 29] showed an MIC [1] of 100 µg/mL (≈ 247 µM), an MIC [2] of 100 µg/mL (≈ 247 µM) and an MIC [4] of 100 µg/mL (≈ 247 µM). It also gave an MIC [5] of 100 µg/mL (≈ 247 µM), an MIC [6] of 100 µg/mL (≈ 247 µM) and an MIC [7] of 100 µg/mL (≈ 247 µM). The MIC [8] was 100 µg/mL (≈ 247 µM), the MIC [9] was 100 µg/mL (≈ 247 µM) and the MIC [10] was 40 µg/mL (≈ 98.9 µM).
